Patent US11421025B2, “Treatment of IL-17A diseases” (OSAKA UNIVERSITY, priority 2013, dated 2022)
Ends that are not written are not given here.

Tests used:
Format in all cases: in vivo
[1] = system: human IL-17A epitope (BSA conjugate); assay: Antibody titer by ELISA after human IL-17A epitope vaccines in BALB/c mouse; conditions: 6 weeks from the first administration, 3 times at 2-week intervals (FIG. 18, 20, 21)
Experimental: Production of plate: Mouse IL-17A1 epitope+BSA conjugate and mouse IL-17A2 epitope+BSA conjugate were dispensed to a 96 well plate at a concentration of 10 μg/ml, and stood at 4° C. overnight. Recombinant mouse IL-17A was dispensed to a 96 well plate at a concentration of 0.25 μg/ml and stood at 4° C. overnight.
The aforementioned plate was washed once with PBS (200 μl), and blocked with 5% skim milk in PBS for 2 hr. The primary antibody (mouse antiserum) was serially diluted with 5% skim milk in PBS, applied by 50 μl to a 96 well plate, and incubated at 4° C. overnight.
The aforementioned plate was washed 7 times with PBS-T (0.05% Tween) (200 μl), the secondary antibody (anti-mouse IgG Ab-HRP-labeled) was diluted 1/1000 (5% skim milk), added by 50 μl, and incubated at ambient temperature for 3 hr. The plate was washed 3 times with PBS-T (0.05% Tween) (200 μl), TMB solution (50 μl) was added, shaded and incubated at ambient temperature for 30 min. 0.5N H2SO4 (50 μl) was added to discontinue the reaction and absorbance was measured at 450 nm.
(§1) A vaccine containing a peptide consisting of the following human IL-17A1 epitope (KLH conjugated) corresponding to mouse IL-17A1 epitope (RPSDYLNR (SEQ ID NO: 5)) was produced, and intradermally administered to BALB/c mouse 3 times at 2-week intervals. The serum antibody titer was measured at 6 weeks from the first administration according to the method described in Example 1.
In addition, a vaccine containing a peptide consisting of two kinds of epitopes (human IL-17A2 epitope, human IL-17A3 epitope) of the following human IL-17A (KLH conjugated) was produced, and intradermally administered to BALB/c mouse 3 times at 2-week intervals. The serum antibody titer was measured at 6 weeks from the first administration according to the method described in Example 1.
Furthermore, a vaccine containing a peptide consisting of the following human IL-17A4, which is a partial sequence of human IL-17A1 epitope (KLH conjugated), was produced. […]

[2] = molecular target: T1, mouse IL-17A1 epitope (BSA conjugate) (Mus musculus, UniProt Q62386); assay: ELISA intersection reactivity of antiserum with mouse IL-17A1 epitope; conditions: serum of BALB/c mouse immunized with human epitope vaccine (FIG. 19A)
T1 construct: BSA-IL-17A1 (RPSDYLNR) conjugate (No5 BSA conjugate)
Experimental: The primary antibody (mouse antiserum) was diluted 10-fold, and then serially diluted by 5-fold and used. […]
as §1

[3] = system: DBA/1 mouse, arthritis caused by Type II collagen; assay: Type II collagen arthritis model mouse, human IL-17A peptide vaccines; conditions: Experiment 8, KLH conjugated peptide vaccines (FIG. 22B)
Experimental: A vaccine containing a peptide consisting of human IL-17A1 epitope, human IL-17A2 epitope or human IL-17A4 epitope was administered to femoral muscle of each of the following 6-week-old male mice (KLH conjugated) 3 times at 2-week intervals (120 μg/60 μl×1 site/administration). Type II collagen and CFA (complete Freund's adjuvant) were administered at 28 days from the first vaccine administration, and Type II collagen and IFA (incomplete Freund's adjuvant) were administered at 42 days from the first vaccine administration, to induce arthritis. Thereafter, the level of arthritis was observed 3 times per week and scored.
H17 (human IL-17A1 epitope) group: 3 mice
AF4 (human IL-17A4 epitope) group: 3 mice
AF5 (human IL-17A2 epitope) group: 3 mice

Substance | serum antibody titer [1] | intersection reactivity of serum with mouse IL-17A1 epitope [2] | clinical score of arthritis [3]
human IL-17A1 epitope: vaccine containing a peptide consisting of human IL-17A1 epitope RSSDYYNR (SEQ ID NO: 1), KLH conjugated (also: KLH conjugated; listed as Homo sapiens) | increased | showed intersection reactivity | suppressive effect on the onset and progression of arthritis
human IL-17A4 epitope: vaccine containing a peptide consisting of human IL-17A4 epitope SDYYN (SEQ ID NO: 11), KLH conjugated (also: KLH conjugated; listed as Homo sapiens) | increased | – | suppressive effect on the onset and progression of arthritis
human IL-17A2 epitope: vaccine containing a peptide consisting of human IL-17A2 epitope ADGNVDYHMNSVPIQQE (SEQ ID NO: 8), KLH conjugated (also: KLH conjugated; listed as Homo sapiens) | increased | – | suppressive effect on the onset and progression of arthritis
